Measured values taken from patent US11162073B2, “Methods for generating functional hematopoietic stem cells” (The Brigham and Women's Hospital, Inc., priority 2015, dated 2021).
“Also recorded” adds a separate entry of the source.

Legend:
zebrafish embryos = zebrafish embryos incubated with stretch-activated ion channel modulators, qRT-PCR and WISH for HSPC surrogate markers; format: in vivo; settings: control zebrafish embryos, incubation between 19-42 hpf
Text: An impact of circumferential stretch is communicated by member(s) of the […] superfamily, Trp-superfamily, ENaC/DEG superfamily, and/or Piezo family (36-39). […] However, the direct role of Trpv4 in HSC emergence has not been established. We therefore treated zebrafish embryos with a pan-inhibitor of Trpv channels (Ruthenium RED; (41)), Trpv4 antagonist (GSK 205; (42)), and Trpv4 agonist (GSK101; (29)) between 19-42 hpf, followed by qRT-PCR and WISH for HSPC surrogate markers (c-myb and runx1).

sih-silenced embryos = assay: silent heart (sih)-silenced zebrafish embryos incubated with trpv4 agonist, HSPC formation; format: in vivo
Experimental: Silent heart cardiac troponin (sih, tnnt2)-mutant embryos lack heartbeat and blood circulation (43). […] Because heartbeat-mediated pulse pressure on blood vessels stimulates HSC emergence, we studied whether the activation of the Trpv4 ion channels triggers HSC formation in the absence of a heartbeat and blood circulation. We therefore incubated sih-silenced embryos (casper or cd41:eGFP::flk1:mCherry) with trpv4 agonist (GSK101) between 19-42 hpf.

E11.5 AGM cells [1] = assay: E11.5 AGM explant culture with drugs followed by colony formation (CFU) assay; format: cell-based, mouse; settings: for multipotent GEMM colony formation: E11.5 AGM, 24-48 hr incubation, CFU assay
Text: We first coated each well of the 6-well FlexCell plate using Fibronectin/Matrigel and allowed it to settle on the nylon membrane of each well. Then we seeded two embryo equivalent (e.e.) single-cell suspension of AGM (composed of endothelial, hemogenic endothelial, hematopoietic, vascular smooth muscle (VSMCs), and mesenchymal stromal cells)-derived cells in each FlexCell well, with a coating of Fibronectin/Matrigel allows AGM-derived (sorted or not sorted) cells to adhere to the bottom of the well. We filled each well with an explant culture medium containing Myelocult and growth factors (27, 28). We put these 6-well plates into the FlexCell machine and applied cyclic strain (4-12%) for 6-48 hours using customized pins hooked to the bottom of each well. We inserted the customized rubber gasket in several wells to simulate static control conditions as well. Next we added drugs modulating the stretch-activated ion channel signaling in a few wells undergoing the external cyclic strain. After 6-48 hours of external stimulation of circumferential stretch, we harvested AGM-derived cells from the FlexCell plate and analyzed their capacity to make hematopoietic cells: (I) We performed CFU assays using Methocult media to count multi-potential granulocyte, erythroid, macrophage, megakaryocyte progenitors (GEMM), granulocyte-macrophage progenitors (CFU-GM, CFU-M, CFU-G), and erythroid progenitor (BFU-E) colonies after seven days of seeding AGM derived sorted cells. (II) We analyzed the expression levels of Runx1, c-Myb, Lmo2, Gata2, CD144, and Gata1. (III) We also stained AGM-derived cells with fluorescently labeled conjugated antibodies to measure the expression levels of Flk1, CD144, CD41, c-Kit, & CD45.2. (IV) We injected two e.e. AGM (donor; CD45.2)-derived cells in sub-lethally irradiated CD45.1 (SJL; recipient) mice. We analyzed long-term engraftment and multi-lineage reconstitution potential of donor cells for 16 weeks followed by serial-transplantation to differentiate between HSCs and hemogenic endothelial cells. (V) We also performed limiting dilution assays to analyze the number of HSCs generated per AGM-derived cell following 2D circumferential stretch.
Using a customized bioreactor based on organ-on-a-chip (FIG. 4), we applied 2D circumferential stretch (6% cyclic strain, 24 hr) to a single cell suspension of two e.e. E11.5 AGM cells. In parallel, we also incubated two e.e. E11.5 AGM static cells with Trpv4 agonist (GSK101 (29)).
(§1) In mice, the first heartbeat occurs at E8.25, and HSCs begin to emerge from AGM-derived hemogenic endothelium between E10.5-E12.5 (10, 11). To investigate whether circumferential stretch-activated ion channels are also involved in mammalian HSC emergence, we incubated E11.5 AGM with non-specific SAC channels inhibitor (GdCl3) and pan-Trpv channel inhibitor (Ruthenium Red) in explant culture media and analyzed their hematopoietic CFU capacity, and the expression of endothelial and hematopoietic genes (CD41, CD45.2, c-Kit, Flk1, CD144).
To further investigate the influence of Trpv4 on HSC formation from hemogenic endothelial cells, we incubated E11.5 AGM (28) with Trpv4 agonist (GSK101, 4α-PDD (44)) and Trpv4 antagonist (GSK 205) for 24-48 hr (FIG. 9).

E11.5 AGM cells [2] = assay: transplant of treated E11.5 AGM cells into irradiated recipient mice, engraftment and multi-lineage reconstitution; format: in vivo, mouse; settings: 2 e.e. AGM per recipient
Text: We first coated each well of the 6-well FlexCell plate using Fibronectin/Matrigel and allowed it to settle on the nylon membrane of each well. Then we seeded two embryo equivalent (e.e.) single-cell suspension of AGM (composed of endothelial, hemogenic endothelial, hematopoietic, vascular smooth muscle (VSMCs), and mesenchymal stromal cells)-derived cells in each FlexCell well, with a coating of Fibronectin/Matrigel allows AGM-derived (sorted or not sorted) cells to adhere to the bottom of the well. We filled each well with an explant culture medium containing Myelocult and growth factors (27, 28). […] After 6-48 hours of external stimulation of circumferential stretch, we harvested AGM-derived cells from the FlexCell plate and analyzed their capacity to make hematopoietic cells: (I) We performed CFU assays using Methocult media to count multi-potential granulocyte, erythroid, macrophage, megakaryocyte progenitors (GEMM), granulocyte-macrophage progenitors (CFU-GM, CFU-M, CFU-G), and erythroid progenitor (BFU-E) colonies after seven days of seeding AGM derived sorted cells. (II) We analyzed the expression levels of Runx1, c-Myb, Lmo2, Gata2, CD144, and Gata1. […] We analyzed long-term engraftment and multi-lineage reconstitution potential of donor cells for 16 weeks followed by serial-transplantation to differentiate between HSCs and hemogenic endothelial cells. […]

[3] = system: human umbilical vein endothelial cells (HUVEC); assay: incubation of HUVEC with Trpv4 agonist, intracellular calcium levels; format: cell-based
E11.5 AGM = E11.5 AGM explant culture, expression of endothelial and hematopoietic genes; format: cell-based, mouse; settings: data not shown
Experimental: as §1

cdh5-silenced embryos = assay: cdh5-silenced zebrafish embryos incubated with NOS inhibitor, HSC formation; format: in vivo; settings: incubation between 19-48 hpf
Text: In zebrafish the heart begins to beat around 23 hpf, the blood circulation begins at approximately 24-26 hpf, and definitive HSCs emerge from hemogenic endothelial cells in the AGM region between 26-48 hpf (11). Blood flow generates shear-stress on the ventral wall of the aortic endothelium and stimulates the endothelial-to-HSC transition by activating the NOS pathway (12, 13). When we performed time-lapse confocal imaging of both the control and the cdh5-silenced cd41:eGFP:flk1:mCherry embryos between 30-48 hpf, we found cdh5-silenced cd41:eGFP^low HSCs emerging from flk1:mCherry^+ endothelial cells despite early circulation arrest (FIG. 1A-B). In addition, we incubated cdh5-silenced embryos in the presence of L-NAME, a pharmacological inhibitor of NOS (12), between 19-48 hpf. […] Thus, HSCs would emerge from hemogenic endothelial cells, despite impaired circulation and NOS inhibition. These striking data led us to investigate shear stress-independent biomechanical and molecular mechanisms responsible for the endothelial transition to HSCs.

Compound	expression of HSPC surrogate markers runx1 and c-myb (zebrafish embryos)	multipotent GEMM colony formation (E11.5 AGM cells [1])	expression of hematopoietic genes (E11.5 AGM)	other results
CC(C)C[C@H](NC(=O)c1cc2ccccc2s1)C(=O)N1CCN(C(=O)[C@H](CO)NS(=O)(=O)c2ccc(Cl)cc2Cl)CC1 [GSK101]	enhances HSPC formation; also recorded: increased the expression of HSPC markers	Increase in GEMM; also recorded: stimulates multipotent progenitor (GEMM) formation; also recorded: enhanced GEMM formation; also recorded: stimulated multipotent GEMM formation		formation of cd41:eGFP+ HSCs (sih-silenced embryos; sih-silenced cd41-eGFP:flk1-mCherry embryos): rescues the formation of cd41:eGFP^+ HSCs; HSPC formation (mRNA expression levels of runx1 and c-myb) (sih-silenced embryos; sih-silenced embryos, 19-42 hpf, WISH and qRT-PCR): rescues hematopoietic stem progenitor cell (HSPC) formation; percentage of engraftment (CD45.2+ peripheral blood chimerism) (E11.5 AGM cells [2]; after 8 weeks): Increase; also recorded: increased the percentage of engraftment; multi-lineage reconstitution (E11.5 AGM cells [2]; peripheral blood after 8 weeks): increased; [Ca+2]i levels [3]: increase in [Ca^+2]i levels
CCCCCCOC(=O)[C@]1(O)C[C@@H]2O[C@@]1(C)n1c3ccccc3c3c4c(c5c6ccccc6n2c5c31)C(=O)NC4 [KT5720]				Trpv4 agonist-mediated increase in multipotent GEMM formation (E11.5 AGM cells [1]; E11.5 AGM explant culture, together with Trpv4 agonist GSK101, 24 hr): attenuated; also recorded: attenuates stimulating impact of Trpv4 agonist
CCCCCCCCCC(=O)O[C@@H]1[C@@H](C)[C@@]2(O)[C@@H](C=C(CO)C[C@@]3(O)C(=O)C(C)=C[C@@H]23)[C@@H]2C(C)(C)[C@]12OC(=O)CCCCCCCCC [4α-PDD, 4alpha-phorbol 12,13-didecanoate]		stimulates multipotent progenitor (GEMM) formation; also recorded: stimulated multipotent GEMM formation		
[Cl][Gd]([Cl])[Cl] [GdCl3, Gadolinium Chloride]	reduced		reduced	multipotent GEMM colony formation (E11.5 AGM cells [1]; listed as GdC13): attenuates GEMM formation; also recorded: reduced
N.N.N.N.N.N.N.N.N.N.N.N.N.N.[Cl-].[Cl-].[Cl-].[Cl-].[Cl-].[Cl-].[O-2].[O-2].[Ru+3].[Ru+3].[Ru+4] [Ruthenium Red]	reduction in runx1 and c-myb expression	attenuates GEMM formation; also recorded: reduced	reduced	
COC(=O)[C@@H](N)CCCNC(=N)N[N+](=O)[O-] [L-NAME]				HSC formation (zf-runx1 and zf-c-Myb expression) (cdh5-silenced embryos): did not abolish HSC formation
